Results on 1 compound are retold here after patent US20260258420A1, “COMPOSITIONS AND METHODS FOR THE TREATMENT OF HUMAN PAPILLOMAVIRUS-DRIVEN CANCERS” (priority 2023, published 2026).

Molecules are shown by their SMILES.

Holding throughout (type): cell-based
Assay [1] has as its system two HPV-positive cell lines transfected with E7 siRNA. Description: Apoptosis immunoblot in HPV-positive cells with E7 siRNA. To be noted: 300 nmol/L, 24 hours. Here is the method:
Each data point represents 1 cell line. Box plots show the median pRb […] levels and 95% confidence intervals across all cell lines in the category. t-test P=0.0097. FIG. 4B, HPV-negative HNSCC cells (HN31, UMSCC4, and MDA886LN) were infected with distinct, lentivirus-based shRNAs (Sh2, Sh4, and Sh6) to stably knock down the expression of RB1 or were treated with control (Ctrl) shRNA. Cells were then treated with 300 nmol/L alisertib for 24 hours before annexin V-PE/7AAD staining and analysis with flow cytometry. The bar graph represents the ratio of apoptosis (late plus early) among different groups. Values are the means±the standard deviations for 3 independent experiments. *P<0.05; **P<0.005; unpaired, 2-tailed Student t-test. FIG. 4C, cells from FIG. 4B were treated with 300 nmol/L alisertib for 24 hours before lysis and immunoblotting with the indicated antibodies. FIG. 4D-E, HN31 cells were stably transfected with an E7 plasmid and treated with 300 nmol/L alisertib for 24 hours before lysis and immunoblotting with (FIG. 4D) the indicated antibodies or (FIG. 4E) annexin-PE staining to measure apoptosis. Values are the means±the standard deviations for 3 independent experiments. ** P≤0.01; *** P≤0.001. FIG. 4F, two HPV-positive cell lines were transfected with 10 nmol/L siRNA oligonucleotides specific to E7 or with control oligonucleotides. […]

Assay [2] has as its system 2 HPV-positive cell lines transfected with MAD2L1 plasmid. Nature of the assay: Apoptosis with Mad2 overexpression. As to conditions: 100 nmol/L, 24 hours. Here is the method:
FIG. 6A, mRNA expressions of MAD2L1, BUBIB and TRIP13 in HNSCC HPV-positive (n=70) and HPV-negative (n=447) HNSCC patient tumors from the TCGA (left panel) and in HPV-positive (n=51) and HPV-negative OPSCC [(n=28), right panel]. FIG. 6B, FIG. 6C, TRIP13 was depleted by siRNA in HPV-positive and negative cell lines. Cells were then treated with 100 nmol/L alisertib for 36 hours before being subjected to lysis and immunoblotting with the indicated antibodies (FIG. 6B) or annexin-PE staining to measure apoptosis using flow cytometry (FIG. 6C). FIG. 6D, FIG. 6E, the MAD2L1 plasmid was transiently transfected into 2 HPV-positive cell lines that were then treated with 100 nmol/L alisertib for 24 hours before being subjected to lysis and immunoblotting for the indicated proteins (FIG. 6D) or annexin-PE staining to measure apoptosis (FIG. 6E). Values are the means±the standard deviations for 3 independent experiments (** P≤0.01). Cl, cleaved; Fl, full length; GAPDH, glyceraldehyde 3-phosphate dehydrogenase; Ox, overexpression. FIG. 6F, model of the synthetic lethality between TRIP13 and Aurora kinase A. HPV-positive, Rb deficient cancer cells rely on both TRIP13 and Aurora kinase activity to maintain mitotic fidelity, such that their combined inhibition will lead to a prolonged spindle assembly checkpoint (SAC), irreversible mitotic arrest, and cancer cell death. […]

The subject of assay [3] is HPV-negative HNSCC cells (HN31, UMSCC4, and MDA886LN) with RB1 knockdown. Description: Apoptosis after RB1 depletion in HPV-negative cells (annexin V, immunoblot). On the technique in general: In western blotting, separated proteins are transferred to a membrane and probed.
Protocol: FIG. 4B, HPV-negative HNSCC cells (HN31, UMSCC4, and MDA886LN) were infected with distinct, lentivirus-based shRNAs (Sh2, Sh4, and Sh6) to stably knock down the expression of RB1 or were treated with control (Ctrl) shRNA. Cells were then treated with 300 nmol/L alisertib for 24 hours before annexin V-PE/7AAD staining and analysis with flow cytometry. The bar graph represents the ratio of apoptosis (late plus early) among different groups. Values are the means±the standard deviations for 3 independent experiments. *P<0.05; **P<0.005; unpaired, 2-tailed Student t-test. FIG. 4C, cells from FIG. 4B were treated with 300 nmol/L alisertib for 24 hours before lysis and immunoblotting with the indicated antibodies. […] Representative results from 3 independent experiments are shown. Cl, cleaved; Fl, full length; GAPDH, glyceraldehyde 3-phosphate dehydrogenase; Ox, overexpression.
To measure apoptosis, TUNEL staining was performed with an APO-BRDU Kit (BD Biosciences, San Jose, CA) and annexin V/propidium iodide staining with an FITC Annexin V Apoptosis Detection Kit PE (eBioscience, San Diego, CA) as described previously (Kalu, et al., Cancer Lett 2018; 431:64-72). […] Data were acquired with a 3-laser, 10-color Gallios flow cytometer (Beckman Coulter, Brea, CA) and analyzed using Kaluza software, RRID:SCR_016182 (Beckman Coulter, Brea, CA). Assays were performed in triplicate, and each test was completed twice on different days.
The lentiviral-based shRNA (GIPZ plasmid) used to knock down human RB1 expression was purchased from Horizon Discovery (Waterbeach, United Kingdom). On the basis of the knockdown efficiency of Rb1 protein expression in 3 HPV-negative cell lines (HN31, UMSCC4, and MDA88 6LN), shRblclones were selected (#2, #4, and #6) for this study. […] The mature antisense sequences were as follows: 5′-[sequence]-3′ (SEQ ID NO:1) (shRb1 #2), 5′-[sequence]-3′ (SEQ ID NO:2) (shRb1 #4), and 5′-[sequence]-3′ (SEQ ID NO:3) (shRb1 #6). To generate lentivirus-expressing shRNA for RB1, HEK 293T cells were transfected with GIPZ-non-silence (for the vector control virus) and GIPZ-shRB1 with jetPEI transfection reagent (RRID:CVCL_0063). The medium was changed 24 hours after transfection and then collected every 48 hours thereafter. The collected lentivirus-containing medium was centrifuged and then filtered (0.45 μM).
The mark [4] stands for this setting: RB1 shRNA, 300 nmol/L, 24 hours.

In the case of `COc1cc(Nc2ncc3c(n2)-c2ccc(Cl)cc2C(c2c(F)cccc2OC)=NC3)ccc1C(=O)O` [ALISERTIB, alisertib], the “apoptosis with and without E7 knockdown (increased Rb expression)” value in assay [1] was “caused apoptosis in the HPV-positive cell lines but not in the same cells with increased Rb expression”. Moreover, the “apoptosis with Mad2 overexpression” value in assay [2] is on record as “enhanced apoptosis”. For the same compound, the “cleaved PARP levels” value in assay [3] (RB1 depleted by transient transfection) is “increase in cleaved PARP levels”. In assay [3] (setting [4]), the “apoptosis (cleaved caspase-3 and cleaved PARP) in cells with reduced Rb levels” value was “induced significant apoptosis”; the “increase in annexin V-positive apoptotic cells when Rb was depleted” value was “approximately 3 fold”. Further, the “apoptosis in control cells with detectable Rb protein levels” value in assay [3] (control shRNA, 300 nmol/L, 24 hours) was “did not induce apoptosis”.
